Measured values as given in US8076487B2, “Pyridone derivative and herbicide” (Kumiai Chemical Industry Co., Ltd., priority 2006, dated 2011).

Legend:
Type in all cases: in vivo
[1] = system: heartshape false pickerelweed (Monochoria vaginalis (Burm.f.) C.Presl); assay: Test Example 1: herbicidal effect by soil application to paddy field; settings: paddy field soil application; active ingredient 1,000 g per 1 hectare; wettable powder added dropwise to water surface the day after sowing; examined on the 21st day after application
Summary of the method: (§1)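 Plants were sown in flooded (3 cm) paddy soil and evaluated for herbicidal effect 21 days after soil application in a greenhouse.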

[2] = system: Japanese bulrush (Scirpus juncoides Roxb.); assay: as above; settings: paddy field soil application; active ingredient 1,000 g per 1 hectare; wettable powder added dropwise to water surface the day after sowing; examined on the 21st day after application
Summary of the method: as §1

[3] = system: early watergrass (Echinochloa oryzicola Vasing); assay: as above; settings: paddy field soil application; active ingredient 1,000 g per 1 hectare; wettable powder added dropwise to water surface the day after sowing; examined on the 21st day after application
Summary of the method: as §1

[4] = system: green foxtail (Setaria viridis (L.) P. Beauv.); assay: Test Example 2: herbicidal effect by soil application to upland field; settings: soil surface spray, upland field soil, 1,000 g active ingredient per hectare, 21st day after application
Summary of the method: (§2)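 Scoring on a standard scale took place 21 days after application, with plants kept in a greenhouse. Active ingredient (1,000 g/ha, as diluted wettable powder, 1,000 L/ha) was sprayed evenly onto soil directly after sowing and covering seeds.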

[5] = system: slender amaranth (Amaranthus viridis L.); assay: as above; settings: soil surface spray, upland field soil, 1,000 g active ingredient per hectare, 21st day after application
Summary of the method: as §2

[6] = system: barnyardgrass (Echinochloa crus-galli (L.) P. Beauv. var. crus-galli); assay: as above; settings: soil surface spray, upland field soil, 1,000 g active ingredient per hectare, 21st day after application
Summary of the method: as §2

[7] = system: velvetleaf (Abutilon theophrasti medicus); assay: as above; settings: soil surface spray, upland field soil, 1,000 g active ingredient per hectare, 21st day after application
Summary of the method: as §2

[8] = system: green foxtail (Setaria viridis (L.) P. Beauv.); assay: Test Example 3: herbicidal effect by application to upland field (foliage treatment); settings: foliage treatment, plants grown two weeks, 1,000 g active ingredient per hectare, 14th day after application
Summary of the method: (§3)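 Seeds went into pots of field soil and grew under glass for two weeks. The whole plant was then sprayed from above with diluted wettable powder delivering 1,000 g/ha of active ingredient. Plants stayed in the greenhouse, and injury was graded against a standard 14 days after spraying.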

[9] = system: slender amaranth (Amaranthus viridis L.); assay: as above; settings: foliage treatment, plants grown two weeks, 1,000 g active ingredient per hectare, 14th day after application
Summary of the method: as §3

[10] = system: barnyardgrass (Echinochloa crus-galli (L.) P. Beauv. var. crus-galli); assay: as above; settings: foliage treatment, plants grown two weeks, 1,000 g active ingredient per hectare, 14th day after application
Summary of the method: as §3

[11] = system: velvetleaf (Abutilon theophrasti medicus); assay: as above; settings: foliage treatment, plants grown two weeks, 1,000 g active ingredient per hectare, 14th day after application
Summary of the method: as §3

| SMILES | herbicidal effect, Monochoria vaginalis (Burm. f.) C. Presl [1] | herbicidal effect, Scirpus juncoides Roxb. [2] | herbicidal effect, Echinochloa oryzicola Vasing [3] | herbicidal effect (index), Green Foxtail [4] | herbicidal effect (index), Slender Amaranth [5] | herbicidal effect (index), Barnyardgrass [6] | herbicidal effect (index), Velvetleaf [7] | herbicidal effect (index), Green Foxtail [8] | herbicidal effect (index), Slender Amaranth [9] | herbicidal effect (index), Barnyardgrass [10] | herbicidal effect (index), Velvetleaf [11] |
| --- | --- | --- | --- | --- | --- | --- | --- | --- | --- | --- | --- |
| C=CCn1c(C(F)(F)F)ccc(C(=O)C2=C(O)CCCC2=O)c1=O [I-11] | 5 (90% or more of herbicidal effect and crop phytotoxicity) | 5 (90% or more of herbicidal effect and crop phytotoxicity) | 5 (90% or more of herbicidal effect and crop phytotoxicity) | 4 (70 to less than 90% of herbicidal effect and crop phytotoxicity) | 5 (90% or more of herbicidal effect and crop phytotoxicity) | 5 (90% or more of herbicidal effect and crop phytotoxicity) | 5 (90% or more of herbicidal effect and crop phytotoxicity) | 5 (90% or more of herbicidal effect and crop phytotoxicity) | 5 (90% or more of herbicidal effect and crop phytotoxicity) | 5 (90% or more of herbicidal effect and crop phytotoxicity) | 5 (90% or more of herbicidal effect and crop phytotoxicity) |
| O=C1CCCC(O)=C1C(=O)c1ccc(C(F)(F)F)n(CS(=O)(=O)C2CC2)c1=O [I-53] | 5 (90% or more of herbicidal effect and crop phytotoxicity) | 5 (90% or more of herbicidal effect and crop phytotoxicity) | 5 (90% or more of herbicidal effect and crop phytotoxicity) | 5 (90% or more of herbicidal effect and crop phytotoxicity) | 5 (90% or more of herbicidal effect and crop phytotoxicity) | 5 (90% or more of herbicidal effect and crop phytotoxicity) | 5 (90% or more of herbicidal effect and crop phytotoxicity) | 5 (90% or more of herbicidal effect and crop phytotoxicity) | 5 (90% or more of herbicidal effect and crop phytotoxicity) | 5 (90% or more of herbicidal effect and crop phytotoxicity) | 5 (90% or more of herbicidal effect and crop phytotoxicity) |
| O=C1CCCC(O)=C1C(=O)c1ccc(C(F)(F)F)n(CC(F)(F)F)c1=O [I-10] | 5 (90% or more of herbicidal effect and crop phytotoxicity) | 5 (90% or more of herbicidal effect and crop phytotoxicity) | 5 (90% or more of herbicidal effect and crop phytotoxicity) | 3 (50 to less than 70% of herbicidal effect and crop phytotoxicity) | 3 (50 to less than 70% of herbicidal effect and crop phytotoxicity) | 5 (90% or more of herbicidal effect and crop phytotoxicity) | 5 (90% or more of herbicidal effect and crop phytotoxicity) | 4 (70 to less than 90% of herbicidal effect and crop phytotoxicity) | 5 (90% or more of herbicidal effect and crop phytotoxicity) | 5 (90% or more of herbicidal effect and crop phytotoxicity) | 5 (90% or more of herbicidal effect and crop phytotoxicity) |
